Measured values reported in paper PMC3789969, “The Allosteric Role of the AAA^+ Domain of ChlD Protein from the Magnesium Chelatase of Synechocystis Species PCC 6803” (The Journal of Biological Chemistry, 2013).

Target: T1, magnesium chelatase (ChlI, His6-ChlD, His6-ChlH); porphyrin site (Synechocystis sp. PCC 6803, UniProt P73020)
T1 construct: recombinant from E. coli; His6 tags on ChlD and ChlH; copies are assay ratio; with Magnesium-chelatase subunit ChlI; Magnesium-chelatase subunit ChlD
Experiment: continuous fluorometric MgDIX formation assay, Michaelis-Menten fit
Assay type: biochemical
Details: 5 mM ATP, Mg2+ (mutant not saturated with Mg2+), pH 7.7, 34 °C, I 0.1

T1 sequence (P51634 whole entry, form open): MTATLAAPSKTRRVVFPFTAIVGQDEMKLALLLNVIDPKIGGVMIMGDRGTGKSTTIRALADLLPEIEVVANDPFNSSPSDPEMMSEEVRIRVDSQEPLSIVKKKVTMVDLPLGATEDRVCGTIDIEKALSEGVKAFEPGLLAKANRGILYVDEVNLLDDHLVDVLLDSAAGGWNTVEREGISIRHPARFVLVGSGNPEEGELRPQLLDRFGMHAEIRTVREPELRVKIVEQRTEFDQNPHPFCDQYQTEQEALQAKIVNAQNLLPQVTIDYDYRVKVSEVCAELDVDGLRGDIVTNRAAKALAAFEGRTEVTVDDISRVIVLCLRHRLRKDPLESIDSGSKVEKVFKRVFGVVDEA
T1 sequence (P73020 entry or part of it, form open): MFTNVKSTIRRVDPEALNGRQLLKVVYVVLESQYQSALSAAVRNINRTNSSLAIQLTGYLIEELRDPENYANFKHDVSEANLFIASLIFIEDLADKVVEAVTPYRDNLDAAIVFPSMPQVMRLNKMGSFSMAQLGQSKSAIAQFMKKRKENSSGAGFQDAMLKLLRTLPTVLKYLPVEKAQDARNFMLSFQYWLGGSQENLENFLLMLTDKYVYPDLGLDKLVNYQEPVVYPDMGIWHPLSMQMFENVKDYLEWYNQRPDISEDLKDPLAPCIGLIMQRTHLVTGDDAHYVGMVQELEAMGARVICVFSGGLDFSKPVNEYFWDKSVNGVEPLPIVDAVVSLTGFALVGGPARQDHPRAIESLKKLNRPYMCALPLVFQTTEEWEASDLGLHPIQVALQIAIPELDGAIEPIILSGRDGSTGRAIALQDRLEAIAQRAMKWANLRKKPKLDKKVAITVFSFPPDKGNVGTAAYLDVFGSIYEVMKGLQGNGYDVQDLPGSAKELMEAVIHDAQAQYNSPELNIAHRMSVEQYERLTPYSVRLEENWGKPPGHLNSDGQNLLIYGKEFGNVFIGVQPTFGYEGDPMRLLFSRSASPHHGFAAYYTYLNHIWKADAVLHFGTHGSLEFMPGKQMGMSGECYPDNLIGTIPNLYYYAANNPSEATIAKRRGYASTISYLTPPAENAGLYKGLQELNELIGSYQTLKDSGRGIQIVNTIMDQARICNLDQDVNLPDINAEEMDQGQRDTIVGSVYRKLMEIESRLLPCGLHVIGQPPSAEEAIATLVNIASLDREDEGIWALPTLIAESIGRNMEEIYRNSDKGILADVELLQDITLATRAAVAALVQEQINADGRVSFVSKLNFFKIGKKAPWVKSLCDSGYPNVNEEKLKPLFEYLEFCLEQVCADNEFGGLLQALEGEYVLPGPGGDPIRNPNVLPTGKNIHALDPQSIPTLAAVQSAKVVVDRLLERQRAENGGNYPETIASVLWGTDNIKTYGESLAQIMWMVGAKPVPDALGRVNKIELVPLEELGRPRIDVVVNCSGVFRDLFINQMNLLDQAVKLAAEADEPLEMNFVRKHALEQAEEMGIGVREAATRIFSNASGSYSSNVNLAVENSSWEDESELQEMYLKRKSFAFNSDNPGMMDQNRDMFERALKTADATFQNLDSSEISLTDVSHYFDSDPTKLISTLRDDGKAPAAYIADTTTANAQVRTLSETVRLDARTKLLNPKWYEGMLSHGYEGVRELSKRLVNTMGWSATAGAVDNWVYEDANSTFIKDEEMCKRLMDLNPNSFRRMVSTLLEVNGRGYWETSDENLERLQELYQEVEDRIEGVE
T1 sequence (P72772 whole entry R289A, form open, further chain): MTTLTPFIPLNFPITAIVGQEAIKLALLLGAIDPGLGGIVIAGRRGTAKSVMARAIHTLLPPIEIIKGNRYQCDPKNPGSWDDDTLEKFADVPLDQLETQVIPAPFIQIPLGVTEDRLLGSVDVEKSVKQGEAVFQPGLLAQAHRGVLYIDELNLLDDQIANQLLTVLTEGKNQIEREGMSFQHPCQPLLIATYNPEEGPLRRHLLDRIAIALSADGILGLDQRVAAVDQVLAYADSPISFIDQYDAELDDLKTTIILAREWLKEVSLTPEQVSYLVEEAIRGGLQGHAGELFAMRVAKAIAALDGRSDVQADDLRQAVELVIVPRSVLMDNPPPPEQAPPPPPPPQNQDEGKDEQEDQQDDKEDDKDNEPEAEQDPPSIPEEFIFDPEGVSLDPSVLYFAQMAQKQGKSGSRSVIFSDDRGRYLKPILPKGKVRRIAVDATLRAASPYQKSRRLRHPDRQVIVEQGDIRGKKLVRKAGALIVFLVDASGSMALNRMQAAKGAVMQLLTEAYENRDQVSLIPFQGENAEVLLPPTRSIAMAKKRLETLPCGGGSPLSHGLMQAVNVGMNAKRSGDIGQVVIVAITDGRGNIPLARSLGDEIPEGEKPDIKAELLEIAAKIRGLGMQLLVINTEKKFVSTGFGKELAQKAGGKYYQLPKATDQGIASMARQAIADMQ

CC1=C(CCC(=O)O)c2cc3nc(cc4[nH]c(cc4C)cc4[nH]c(cc1n2)cc4C)C(C)=C3CCC(=O)O [deuteroporphyrin IX] showed a Km of 0.99 ± 0.12 µM.
